Patent publication US20220249454A1, “INHIBITORS OF MONOCARBOXYLATE TRANSPORTERS FOR CANCER IMMUNOTHERAPY” (NIROGY THERAPEUTICS, INC., priority 2021, published 2022)

Tested on: panel of solid and haemotological tumor cell lines (e.g., Hs578t, SiHa, MDA-MB-231)
Assay: MTS cell proliferation assay (cytotoxicity)
Type: cell-based
Conditions: Table 1 (Group 1), 72-96 hours, 10 mM lactate medium or RPMI 1640 medium, cell line not stated
Protocol: The anti-proliferation effect of MCT inhibition was investigated across a panel of solid and haemotological tumor cell lines. Cells were routinely cultured in their appropriate growth medium. On day 1, between 10,000-25,000 cells/well (e.g., Hs578t: 15,000 cells/well, SiHa: 10,000 cells/well, and MDA-MB-231: 25,000 cells/well) were plated into 96-well plates. 100 μL. of phosphate buffered saline solution was added to the external wells to prevent media evaporation. Plates were incubated in growth medium overnight at 37° C. in the presence of 5% CO2. On day 2, dry weight compound stocks were dissolved to a concentration of 10 mM in 100% DMSO. Compounds were further diluted in the assay medium; 10 mM lactate medium (without glucose, pyruvate, and glutamine) or RPMI 1640 medium (without pyruvate and glutamine) to generate a final dose range of 1 nM to 10 μM. Growth medium in the 96-well plate was replaced with the assay medium (10 mM lactate medium or RPMI medium or appropriate medium), and compounds were added to each well in the plate at different concentrations via serial dilution or pre-prepared solutions in assay medium. Plates were then incubated at 37° C. in the presence of 5% CO2 for a further 72-96 hours. On day 2-5, assay media was changed to 100 uL of DMEM/F12 and 20 μL of CellTiter 96 AQ MTS reagent was added to each well and the plate was returned to the incubator for 1-2 hours. MTS is bioreduced by NADPH or NADH produced by dehydrogenase enzymes in metabolically active cells into a coloured formazan product that is soluble in tissue culture medium. The amount of coloured formazan product is directly proportional to the number of living cells in culture. The absorbance of the plates was read on a Spectramax M5e plate reader using […] measurement wavelength. Dose response curves were plotted and IC50 values were calculated using GraphPad Prism. The IC50 value is equivalent to the concentration of compound that causes 50% inhibition of growth calculated from the compound treated signal to the vehicle treated signal.
Cytotoxicity of selected compounds is listed in Table 1, where IC50: A=<1 uM; B=1-10 uM; C=>10 uM; and NT=Not Tested.

Structure (SMILES)	IC50 [µM]
CN(c1cc2oc(=O)c(C(=O)O)cc2s1)S(=O)(=O)c1cccc(C(F)(F)F)c1 [Compound 1.028, 2-[Methyl-(3-trifluoromethyl-benzenesulfonyl)-amino]-5-oxo-5H-thieno[3,2-b]pyran-6-carboxylic acid]	< 1
CN(Cc1cc(C(F)(F)F)cc(C(F)(F)F)c1)c1cc2oc(=O)c(C(=O)O)cc2s1 [Compound 1.007, 2-((3,5-bis(trifluoromethyl)benzyl)(methyl)amino)-5-oxo-5H-thieno[3,2-b]pyran-6-carboxylic acid]	< 1
COc1ccc(C(=O)N(C)c2cc3oc(=O)c(C(=O)O)cc3s2)cc1 [Compound 1.016, 2-[(4-Methoxy-benzoyl)-methyl-amino]-5-oxo-5H-thieno[3,2-b]pyran-6-carboxylic acid]	< 1
CN(C(=O)c1ccc(C(F)(F)F)cc1)c1cc2oc(=O)c(C(=O)O)cc2s1 [Compound 1.020, 2-[Methyl-(4-trifluoromethyl-benzoyl)-amino]-5-oxo-5H-thieno[3,2-b]pyran-6-carboxylic acid]	< 1
CN(CC1CCCCC1)c1cc2oc(=O)c(C(=O)O)cc2s1 [Compound 1.005, 2-((cyclohexylmethyl)(methyl)amino)-5-oxo-5H-thieno[3,2-b]pyran-6-carboxylic acid]	< 1
CN(C(=O)c1ccc(F)cc1)c1cc2oc(=O)c(C(=O)O)cc2s1 [Compound 1.011, 2-(4-fluoro-N-methylbenzamido)-5-oxo-5H-thieno[3,2-b]pyran-6-carboxylic acid]	< 1
O=C(O)c1cc2sccc2oc1=O [Compound 1.029, 5-oxo-5H-thieno[3,2-b]pyran-6-carboxylic acid]	1 to 10
CN(Cc1cccc(C(F)(F)F)c1)c1cc2oc(=O)c(C(=O)O)cc2s1 [Compound 1.006, 2-(methyl(3-(trifluoromethyl)benzyl)amino)-5-oxo-5H-thieno[3,2-b]pyran-6-carboxylic acid]	< 1
CN(Cc1ccc(C(F)(F)F)cc1)c1cc2oc(=O)c(C(=O)O)cc2s1 [Compound 1.023, 2-[Methyl-(4-trifluoromethyl-benzyl)-amino]-5-oxo-5H-thieno[3,2-b]pyran-6-carboxylic acid]	< 1
CN(Cc1cccs1)c1cc2oc(=O)c(C(=O)O)cc2s1 [Compound 1.014, 2-(methyl(thiophen-2-ylmethyl)amino)-5-oxo-5H-thieno[3,2-b]pyran-6-carboxylic acid]	< 1
CN1CCC(CN(C)c2cc3oc(=O)c(C(=O)O)cc3s2)CC1 [Compound 1.012, 2-(methyl((1-methylpiperidin-4-yl)methyl)amino)-5-oxo-5H-thieno[3,2-b]pyran-6-carboxylic acid]	< 1

Same assay, conditions: Table 2 (Group 2), 72-96 hours, 10 mM lactate medium or RPMI 1640 medium, cell line not stated

Structure (SMILES)	IC50 [µM]
Cc1cccc(NC(=O)N(C)c2cc3oc(=O)c(C(=O)O)cc3s2)c1 [Compound 2.036, 2-(1-methyl-3-(m-tolyl)ureido)-5-oxo-5H-thieno[3,2-b]pyran-6-carboxylic acid]	< 1
CN(C(=O)N1CCOCC1)c1cc2oc(=O)c(C(=O)O)cc2s1 [Compound 2.044, 2-(N-methylmorpholine-4-carboxamido)-5-oxo-5H-thieno[3,2-b]pyran-6-carboxylic acid]	< 1
CN(C(=O)Nc1cccc(Cl)c1)c1cc2oc(=O)c(C(=O)O)cc2s1 [Compound 2.034, 2-(3-(3-chlorophenyl)-1-methylureido)-5-oxo-5H-thieno[3,2-b]pyran-6-carboxylic acid]	< 1
CN(C(=O)Nc1ccccc1F)c1cc2oc(=O)c(C(=O)O)cc2s1 [Compound 2.024, 2-(3-(2-fluorophenyl)-1-methylureido)-5-oxo-5H-thieno[3,2-b]pyran-6-carboxylic acid]	< 1
CN(C(=O)Nc1cc(C(F)(F)F)cc(C(F)(F)F)c1)c1cc2oc(=O)c(C(=O)O)cc2s1 [Compound 2.042, 2-(3-(3,5-bis(trifluoromethyl)phenyl)-1-methylureido)-5-oxo-5H-thieno[3,2-b]pyran-6-carboxylic acid]	< 1
CN(C(=O)Nc1cccc(C(F)(F)F)c1)c1cc2oc(=O)c(C(=O)O)cc2s1 [Compound 2.011, 2-(1-methyl-3-(3-(trifluoromethyl)phenyl)ureido)-5-oxo-5H-thieno[3,2-b]pyran-6-carboxylic acid]	< 1
COc1cccc(NC(=O)N(C)c2cc3oc(=O)c(C(=O)O)cc3s2)c1 [Compound 2.003, 2-(3-(3-methoxyphenyl)-1-methylureido)-5-oxo-5H-thieno[3,2-b]pyran-6-carboxylic acid]	< 1
CN(C(=O)Nc1ccc(F)c(F)c1)c1cc2oc(=O)c(C(=O)O)cc2s1 [Compound 2.040, 2-(3-(3,4-difluorophenyl)-1-methylureido)-5-oxo-5H-thieno[3,2-b]pyran-6-carboxylic acid]	< 1
Cc1ccccc1NC(=O)N(C)c1cc2oc(=O)c(C(=O)O)cc2s1 [Compound 2.035, 2-(1-methyl-3-(o-tolyl)ureido)-5-oxo-5H-thieno[3,2-b]pyran-6-carboxylic acid]	< 1
COc1cc(NC(=O)N(C)c2cc3oc(=O)c(C(=O)O)cc3s2)ccc1F [Compound 2.016, 2-(3-(4-fluoro-3-methoxyphenyl)-1-methylureido)-5-oxo-5H-thieno[3,2-b]pyran-6-carboxylic acid]	< 1
Cc1ccc(NC(=O)N(C)c2cc3oc(=O)c(C(=O)O)cc3s2)cc1 [Compound 2.033, 2-(1-methyl-3-(p-tolyl)ureido)-5-oxo-5H-thieno[3,2-b]pyran-6-carboxylic acid]	< 1
COc1ccc(NC(=O)N(C)c2cc3oc(=O)c(C(=O)O)cc3s2)cc1 [Compound 2.008, 2-(3-(4-methoxyphenyl)-1-methylureido)-5-oxo-5H-thieno[3,2-b]pyran-6-carboxylic acid]	< 1
CN(C(=O)c1ccc2cc(F)ccc2c1)c1cc2oc(=O)c(C(=O)O)cc2s1 [Compound 2.029, 2-(6-fluoro-N-methyl-2-naphthamido)-5-oxo-5H-thieno[3,2-b]pyran-6-carboxylic acid]	< 1
CN(C(=O)Nc1ccc(F)cc1F)c1cc2oc(=O)c(C(=O)O)cc2s1 [Compound 2.037, 2-(3-(2,4-difluorophenyl)-1-methylureido)-5-oxo-5H-thieno[3,2-b]pyran-6-carboxylic acid]	< 1
CN(C(=O)Nc1ccc(OC(F)(F)F)cc1)c1cc2oc(=O)c(C(=O)O)cc2s1 [Compound 2.019, 2-(1-methyl-3-(4-(trifluoromethoxy)phenyl)ureido)-5-oxo-5H-thieno[3,2-b]pyran-6-carboxylic acid]	< 1
CN(C(=O)c1ccccc1-c1ccc(F)cc1)c1cc2oc(=O)c(C(=O)O)cc2s1 [Compound 2.032, 2-(4′-fluoro-N-methyl-[1,1′-biphenyl]-2-carboxamido)-5-oxo-5H-thieno[3,2-b]pyran-6-carboxylic acid]	< 1
CN(C(=O)c1ccc(-c2ccccc2)cc1)c1cc2oc(=O)c(C(=O)O)cc2s1 [Compound 2.028, 2-(N-methyl-[1,1′-biphenyl]-4-carboxamido)-5-oxo-5H-thieno[3,2-b]pyran-6-carboxylic acid]	< 1
CN(C(=O)NC1CCOCC1)c1cc2oc(=O)c(C(=O)O)cc2s1 [Compound 2.043, 2-(1-methyl-3-(tetrahydro-2H-pyran-4-yl)ureido)-5-oxo-5H-thieno[3,2-b]pyran-6-carboxylic acid]	< 1
CC(C)c1csc(NC(=O)N(C)c2cc3oc(=O)c(C(=O)O)cc3s2)n1 [Compound 2.049, 2-(3-(4-isopropylthiazol-2-yl)-1-methylureido)-5-oxo-5H-thieno[3,2-b]pyran-6-carboxylic acid]	< 1
CN(C(=O)Nc1ccc(C(F)(F)F)cc1)c1cc2oc(=O)c(C(=O)O)cc2s1 [Compound 2.012, 2-(1-methyl-3-(4-(trifluoromethyl)phenyl)ureido)-5-oxo-5H-thieno[3,2-b]pyran-6-carboxylic acid]	< 1
CN(C(=O)Nc1ccc(Cl)cc1)c1cc2oc(=O)c(C(=O)O)cc2s1 [Compound 2.004, 2-(3-(4-chlorophenyl)-1-methylureido)-5-oxo-5H-thieno[3,2-b]pyran-6-carboxylic acid]	< 1
COc1ccc(NC(=O)N(C)c2cc3oc(=O)c(C(=O)O)cc3s2)cc1C [Compound 2.026, 2-(3-(4-methoxy-3-methylphenyl)-1-methylureido)-5-oxo-5H-thieno[3,2-b]pyran-6-carboxylic acid]	< 1
CN(C(=O)Nc1nc(C(C)(C)C)cs1)c1cc2oc(=O)c(C(=O)O)cc2s1 [Compound 2.048, 2-(3-(4-(tert-butyl)thiazol-2-yl)-1-methylureido)-5-oxo-5H-thieno[3,2-b]pyran-6-carboxylic acid]	< 1
